Test results as given in PMC9115581, “Synthesis and Biological Evaluations of Betulinic Acid Derivatives With Inhibitory Activity on Hyaluronidase and Anti-Inflammatory Effects Against Hyaluronic Acid Fragment Induced Inflammation” (Frontiers in Chemistry, 2022).

Assays:
[1] = system: HA fragment-stimulated THP-1 cells; experiment: NO production in HA fragment (LMWHAFs) stimulated THP-1 cells; assay type: cell-based, human; conditions: 10 μM, HA fragment 6mer 50 μg/mL
Protocol: (§1) NO concentration was determined by the Griess assay according to a previous report ([Ma et al., 2016]), RAW264.7 and BV-2 cells (20,000 cells per well) were plated into 96-well plates. After an incubation period of 24 h, the cells were pre-treated with BA derivatives for 2 h and were co-treated with LPS (1 μg/mL) for 24 h. For the LMWHAFs-induced inflammation assay, THP-1 cells were pre-treated with BA derivatives for 2 h and then treated with LPS (1 μg/mL) and HA fragment (a hyaluronan oligosaccharide 6mer; 50 μg/mL) from Amsbio (Rockville, MD, United States; product code: CSR-11002) for 24 h ([Campo et al., 2012]; [Scuruchi et al., 2016]). Subsequently, the culture medium was mixed with the Griess reagent in a 1:1 ratio followed by a 15 min incubation in the dark. An absorbance value was measured at 540 nm using a Spectramax M2 microplate reader, and the NO concentration was calculated based on the standard NO curve.

[2] = Cell viability of BV-2 cells; assay type: cell-based, murine; conditions: mouse, BV2 cells
Protocol: The cytotoxicity of each compound was determined in BV-2 and RAW264.7 cells with the MTT assay ([Li et al., 2020]). Briefly, cells were seeded in 96-well plates at 20,000 cells per well. Cells were allowed to adhere for 24 h. BA derivatives were prepared to 100 mM in DMSO, then diluted in serum-free media to yield concentrations of 10 µM. After the treatment of the cells with BA derivatives for 2 h, the cells were incubated in the absence or presence of LPS (1 μg/mL) for 24 h. Cellular viability was determined as a percentage of control (DMSO) by using a Cell Proliferation Kit II (Promega, Madison, WI, United States). XTT reagent (0.3 mg/mL) was then added to each well and incubated for 4 h at 37°C and an absorbance value was measured at 492 nm using a Spectramax M2 microplate reader ([Hayon et al., 2003]).

LPS-stimulated BV2 cells = experiment: NO production (Griess assay) in LPS-stimulated BV2 cells; assay type: cell-based, murine; conditions: Mus musculus, BV-2, LPS 1 μg/mL
Protocol: as §1

[3] = system: LPS-stimulated THP-1 cells; experiment: IL-6 by ELISA in LPS-stimulated THP-1 cells; assay type: cell-based, human; conditions: 10 μM, LPS alone 695.6 pg/mL
Protocol: To evaluate the effect of BA derivatives on LPS-induced IL-6 secretion, THP-1 monocytes were seeded at a density of 50,000 cells per well in a 48-well plate and differentiated with PMA (25 ng/mL), pre-treated with the BA derivatives at concentrations of 10 μM was performed for 6 h followed by stimulation with or without 1 μg/mL LPS for 12 h. The cell culture supernatant was collected for the measurement of IL-6. The levels of IL-6 were determined using specific ELISA kits (BioLegend, San Diego, CA, United States) ([Liu et al., 2020]).

[4] = system: LPS-stimulated RAW264.7 cells; experiment: NO production (Griess assay) in LPS-stimulated RAW264.7 cells; assay type: cell-based, murine; conditions: for Reduction of LPS-stimulated NO production: 10 μM, LPS 1 μg/mL; for Decrease of NO production as compared to parent compound BA: LPS-stimulated
Protocol: as §1

With C=C(C)[C@@H]1CC[C@]2(C(=O)O)CC[C@]3(C)[C@H](CC[C@@H]4[C@@]5(C)CC[C@H](O)C(C)(C)[C@@H]5CC[C@]43C)[C@@H]12 [BA, betulinic acid] the “Reduction of LMWHAF-stimulated NO production” value [1] was 12.4%, the viability at 10 µM [2] was 110% and the inhibition at 10 µM (LPS-stimulated BV2 cells) was 3.4%. The “LPS-induced secretion of IL-6” value [3] was 613.3 pg/mL and the “Reduction of LPS-stimulated NO production” value [4] was 20.4%.
In the case of C=C(C)[C@@H]1CC[C@]2(C(=O)O)CC[C@]3(C)[C@H](CC[C@@H]4[C@@]5(C)C/C(=C\c6ccccc6Br)C(=O)C(C)(C)[C@@H]5CC[C@]43C)[C@@H]12 [BA-02, (1R,3aS,5aR,5bR,7aR,11aR,11bR,13aR,13bR)-10-((E)-2-bromobenzylidene)-5a,5b,8,8,11a-pentamethyl-9-oxo-1-(prop-1-en-2-yl)icosahydro-3aH-cyclopenta[a]chrysene-3a-carboxylic acid], the “LPS-induced secretion of IL-6” value [3] is reported as 586.6 pg/mL.
For C=C(C)[C@@H]1CC[C@]2(C(=O)O)CC[C@]3(C)[C@H](CC[C@@H]4[C@@]5(C)C/C(=C\c6cc(OC)ccc6[N+](=O)[O-])C(=O)C(C)(C)[C@@H]5CC[C@]43C)[C@@H]12 [BA-03, (1R,3aS,5aR,5bR,7aR,11aR,11bR,13aR,13bR)-10-((E)-5-methoxy-2-nitrobenzylidene)-5a,5b,8,8,11a-pentamethyl-9-oxo-1-(prop-1-en-2-yl)icosahydro-3aH-cyclopenta[a]chrysene-3a-carboxylic acid], the “LPS-induced secretion of IL-6” value [3] was 586.0 pg/mL, the “Reduction of LPS-stimulated NO production” value [4] was 42.9% and the “Decrease of NO production as compared to parent compound BA” value [4] was 2.3 fold.
For C=C(C)[C@@H]1CC[C@]2(C(=O)O)CC[C@]3(C)[C@H](CC[C@@H]4[C@@]5(C)C/C(=C\c6cc(F)ccc6[N+](=O)[O-])C(=O)C(C)(C)[C@@H]5CC[C@]43C)[C@@H]12 [BA-04, (1R,3aS,5aR,5bR,7aR,11aR,11bR,13aR,13bR)-10-((E)-5-fluoro-2-nitrobenzylidene)-5a,5b,8,8,11a-pentamethyl-9-oxo-1-(prop-1-en-2-yl)icosahydro-3aH-cyclopenta[a]chrysene-3a-carboxylic acid], the “LPS-induced secretion of IL-6” value [3] was 539.6 pg/mL and the “Reduction of LPS-stimulated NO production” value [4] was 32.3%.
In the case of C=C(C)[C@@H]1CC[C@]2(C(=O)O)CC[C@]3(C)[C@H](CC[C@@H]4[C@@]5(C)C/C(=C\c6ccccc6OC)C(=O)C(C)(C)[C@@H]5CC[C@]43C)[C@@H]12 [BA-05, (1R,3aS,5aR,5bR,7aR,11aR,11bR,13aR,13bR)-10-((E)-2-methoxybenzylidene)-5a,5b,8,8,11a-pentamethyl-9-oxo-1-(prop-1-en-2-yl)icosahydro-3aH-cyclopenta[a]chrysene-3a-carboxylic acid], the “LPS-induced secretion of IL-6” value [3] is reported as 589.8 pg/mL and the “Reduction of LPS-stimulated NO production” value [4] is reported as 38.5%.
C=C(C)[C@@H]1CC[C@]2(C(=O)O)CC[C@]3(C)[C@H](CC[C@@H]4[C@@]5(C)C/C(=C\c6cccc(OC)c6)C(=O)C(C)(C)[C@@H]5CC[C@]43C)[C@@H]12 [BA-09] showed an inhibition at 10 µM (LPS-stimulated BV2 cells) of 36%.
For C=C(C)[C@@H]1CC[C@]2(C(=O)O)CC[C@]3(C)[C@H](CC[C@@H]4[C@@]5(C)C/C(=C\c6cccc(C(F)(F)F)c6)C(=O)C(C)(C)[C@@H]5CC[C@]43C)[C@@H]12 [BA-11, (1R,3aS,5aR,5bR,7aR,11aR,11bR,13aR,13bR)-5a,5b,8,8,11a-pentamethyl-9-oxo-1-(prop-1-en-2-yl)-10-((E)-3-(trifluoromethyl)benzylidene)icosahydro-3aH-cyclopenta[a]chrysene-3a-carboxylic acid], the “Reduction of LMWHAF-stimulated NO production” value [1] was 11.3%, the inhibition at 10 µM (LPS-stimulated BV2 cells) was 7.7% and the “Reduction of LPS-stimulated NO production” value [4] was 33.4%.
For C=C(C)[C@@H]1CC[C@]2(C(=O)O)CC[C@]3(C)[C@H](CC[C@@H]4[C@@]5(C)C/C(=C\c6ccc(OC)cc6)C(=O)C(C)(C)[C@@H]5CC[C@]43C)[C@@H]12 [BA-13, (1R,3aS,5aR,5bR,7aR,11aR,11bR,13aR,13bR)-10-((E)-4-methoxybenzylidene)-5a,5b,8,8,11a-pentamethyl-9-oxo-1-(prop-1-en-2-yl)icosahydro-3aH-cyclopenta[a]chrysene-3a-carboxylic acid], the “Reduction of LMWHAF-stimulated NO production” value [1] was 35.6%, the inhibition at 10 µM (LPS-stimulated BV2 cells) was 33.6% and the “Reduction of LPS-stimulated NO production” value [4] was 46.4%. The “Decrease of NO production as compared to parent compound BA” value [4] was 2.1 fold.
